From ChEMBL document CHEMBL5523725, “Fragment-Based Anti-inflammatory Agent Design and Target Identification: Discovery of AF-45 as an IRAK4 Inhibitor to Treat Ulcerative Colitis and Acute Lung Injury” (J Med Chem, 2024)
Calls of active or inactive are those of the source. The calls are words filed in the database; no cut-off is given here.

Tests used:
RAW264.7 [1] = assay: Antiinflammatory activity in LPS-induced mouse RAW264.7 cells assessed as inhibition of IL-6 release at 10 uM pretreated for 30 mins followed by LPS stimulation and measured after 24 hrs by ELISA relative to control; assay type: functional; conditions: time 24.5 hrs
[2] = Cytotoxicity against mouse RAW264.7 cells assessed as cell viability by MTT assay; assay type: toxicity, cell-based; design: concentration or dose not given beside the values; conditions: read-out: Activity
RAW264.7 [3] = assay: Antiinflammatory activity in LPS-induced mouse RAW264.7 cells assessed as inhibition of TNF-alpha mRNA transcription pretreated for 2 hrs followed by LPS stimulation and measured after 6 hrs by RT-qPCR analysis; assay type: functional, cell-based; conditions: dose 5-10 µM, time 8.0 hrs
RAW264.7 [4] = assay: Inhibition of NFkappaB signaling pathway in LPS-induced mouse RAW264.7 cells assessed as inhibition of p65 entry into nucleus pretreated for 2 hrs followed by LPS stimulation and measured after 15 mins by immunofluorescence staining based analysis; assay type: cell-based; conditions: time 135.0 min
[5] = molecular target: Aurora kinase B (Homo sapiens) (UniProt Q96GD4); assay: Inhibition of human AurB assessed as residual activity at 10 uM by Eurofins kinase profiler method relative to control
Chain of Aurora kinase B (Homo sapiens) (Q96GD4 whole entry): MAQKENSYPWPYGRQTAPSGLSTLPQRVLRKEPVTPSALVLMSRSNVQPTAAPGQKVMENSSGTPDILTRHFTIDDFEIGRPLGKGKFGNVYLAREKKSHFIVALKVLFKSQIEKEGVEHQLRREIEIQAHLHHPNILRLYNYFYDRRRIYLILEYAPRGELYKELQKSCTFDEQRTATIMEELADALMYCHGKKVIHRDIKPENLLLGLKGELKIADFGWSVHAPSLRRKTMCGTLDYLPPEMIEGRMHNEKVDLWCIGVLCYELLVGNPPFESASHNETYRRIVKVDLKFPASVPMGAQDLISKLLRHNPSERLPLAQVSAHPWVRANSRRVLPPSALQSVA

[6] = molecular target: T1, Lymphocyte antigen 96 (Mus musculus) (UniProt Q9JHF9); assay: Thermal stabilization of MD2 in mouse RAW264.7 cells assessed as reduction in decomposition at 10 uM at 45 to 51 degreeC measured after 4 hrs by CETSA; assay type: cell-based
T1 sequence (whole entry): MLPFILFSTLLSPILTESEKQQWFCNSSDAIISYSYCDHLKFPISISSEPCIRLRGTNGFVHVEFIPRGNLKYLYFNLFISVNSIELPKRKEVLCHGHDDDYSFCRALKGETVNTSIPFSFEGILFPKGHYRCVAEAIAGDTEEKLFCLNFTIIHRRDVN

[7] = molecular target: Cyclin-dependent kinase 16 (Homo sapiens) (UniProt Q00536); assay: Inhibition of human PCTAIREI assessed as residual activity at 10 uM by Eurofins kinase profiler method relative to control
Chain of Cyclin-dependent kinase 16 (Homo sapiens) (Q00536 whole entry): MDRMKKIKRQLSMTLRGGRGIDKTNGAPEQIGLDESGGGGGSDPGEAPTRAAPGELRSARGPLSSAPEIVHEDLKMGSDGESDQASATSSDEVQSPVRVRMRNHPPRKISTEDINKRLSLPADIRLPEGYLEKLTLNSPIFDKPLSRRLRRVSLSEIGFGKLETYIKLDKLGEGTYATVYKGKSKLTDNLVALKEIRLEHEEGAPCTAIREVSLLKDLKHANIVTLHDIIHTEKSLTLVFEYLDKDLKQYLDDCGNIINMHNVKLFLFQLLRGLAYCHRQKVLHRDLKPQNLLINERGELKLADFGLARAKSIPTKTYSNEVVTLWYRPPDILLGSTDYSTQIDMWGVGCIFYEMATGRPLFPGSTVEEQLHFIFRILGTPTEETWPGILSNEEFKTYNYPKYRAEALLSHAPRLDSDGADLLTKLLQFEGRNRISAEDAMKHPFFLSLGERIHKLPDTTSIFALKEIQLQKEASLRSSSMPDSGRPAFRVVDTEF

RAW264.7 [8] = assay: Inhibition of NFkappaB/MAPK signaling pathway in mouse RAW264.7 cells assessed as reduction in LPS-induced JNK phosphorylation at 50 uM by Western blot analysis; assay type: cell-based
Mus musculus [9] = assay: Antiinflammatory activity in male C57BL/6 mouse model of DSS-induced ulcerative colitis assessed as increase in body weight at 20 mg/kg, po administered for 11 days with subsequent administration of DSS for 8 days and measured on day 11; assay type: functional, organism-based; conditions: time 11.0 day
Mus musculus [10] = assay: Anti-colitis activity in male C57BL/6 mouse model of DSS-induced ulcerative colitis assessed as colon length at 20 mg/kg, po administered for 11 days with subsequent administration of DSS for 8 days (reference value: 5.2 cm); assay type: functional; conditions: time 11 day
Mus musculus [11] = assay: Antiinflammatory activity in male C57BL/6 mouse model of DSS-induced ulcerative colitis assessed as reduction in spleen to body weight ratio at 10 to 20 mg/kg, po administered for 11 days with subsequent administration of DSS for 8 days; assay type: functional, organism-based; conditions: dose 10-20 mg/kg, time 11.0 day
Mus musculus [12] = assay: Antiinflammatory activity in male C57BL/6 mouse model of DSS-induced ulcerative colitis assessed as reduction in TNF-alpha level in serum at 20 mg/kg, po administered for 11 days with subsequent administration of DSS for 8 days by ELISA; assay type: functional, organism-based; conditions: time 11.0 day
Mus musculus [13] = assay: Antiinflammatory activity in male C57BL/6 mouse model of DSS-induced ulcerative colitis assessed as reduction in colonic structure destruction at 10 to 20 mg/kg, po administered for 11 days with subsequent administration of DSS for 8 days by H and E staining based analysis; assay type: functional, organism-based; conditions: dose 10-20 mg/kg, time 11.0 day
Mus musculus [14] = assay: Antiinflammatory activity in male C57BL/6 mouse model of DSS-induced ulcerative colitis assessed as preservation of goblet cells at 10 to 20 mg/kg, po administered for 11 days with subsequent administration of DSS for 8 days by H and E staining based analysis; assay type: functional, organism-based; conditions: dose 10-20 mg/kg, time 11.0 day
Mus musculus [15] = assay: Antiinflammatory activity in LPS induced ip dosed C57BL/6 mouse model of acute lung injury assessed as reduction in […] of lung preadministered for 30 mins followed by LPS administration and measured after 6 hrs; assay type: functional, organism-based; conditions: dose 20-40 mg/kg, time 6.5 hrs
Mus musculus [16] = assay: Antiinflammatory activity in LPS induced C57BL/6 mouse model of acute lung injury assessed as inhibition of IL-6 release in serum at 20 to 40 mg/kg, ip preadministered for 30 mins followed by LPS administration and measured after 6 hrs by ELISA; assay type: functional, organism-based; conditions: dose 20-40 mg/kg, time 6.5 hrs
Mus musculus [17] = assay: Antiinflammatory activity in LPS induced C57BL/6 mouse model of acute lung injury assessed as inhibition of TNFalpha release in serum at 20 to 40 mg/kg, ip preadministered for 30 mins followed by LPS administration and measured after 6 hrs by ELISA; assay type: functional, organism-based; conditions: dose 20-40 mg/kg, time 6.5 hrs
Mus musculus [18] = assay: Antiinflammatory activity in LPS induced C57BL/6 mouse model of acute lung injury assessed as reduction in inflammatory exudation in lung at 20 mg/kg, ip preadministered for 30 mins followed by LPS administration and measured after 6 hrs by H and E staining based analysis; assay type: functional, organism-based; conditions: time 6.5 hrs
Mus musculus [19] = assay: Antiinflammatory activity in LPS induced C57BL/6 mouse model of acute lung injury assessed as reduction in alveolar wall thickening at 20 mg/kg, ip preadministered for 30 mins followed by LPS administration and measured after 6 hrs by H and E staining based analysis; assay type: functional, organism-based; conditions: time 6.5 hrs
Mus musculus [20] = assay: Antiinflammatory activity in LPS induced C57BL/6 mouse model of acute lung injury assessed as reduction in white pulp fusion at 20 to 40 mg/kg, ip preadministered for 30 mins followed by LPS administration and measured after 6 hrs by H and E staining based analysis; assay type: functional, organism-based; conditions: dose 20-40 mg/kg, time 6.5 hrs
Mus musculus [21] = assay: Antiinflammatory activity in LPS induced C57BL/6 mouse model of acute lung injury assessed as reduction in number of macrophages in spleen at 20 to 40 mg/kg, ip preadministered for 30 mins followed by LPS administration and measured after 6 hrs by F4/80 labeling based immunohistochemical analysis; assay type: functional, organism-based; conditions: dose 20-40 mg/kg, time 6.5 hrs
[22] = Stability of compound in enzyme-free simulated gastric fluid at 10 mg/ml incubated for 8 hrs and measured every 2 hrs hy HPLC analysis; assay type: ADME; conditions: simulated gi fluid
[23] = Half life in male Sprague-Dawley rat at 1 mg/kg, iv administered via tail vein and measured upto 24 hrs; assay type: ADME, organism-based; conditions: in vivo
[24] = AUC (0 to t) in male Sprague-Dawley rat at 10 mg/kg, po measured upto 24 hrs; assay type: ADME, organism-based; conditions: in vivo

With `COc1cc2c(O[C@H]3CC[C@@H](N)CC3)ncnc2cc1OCc1ccccc1` as the molecule, how does the inhibition at 10 µM (RAW264.7 [1]) read?
Its inhibition at 10 µM is 92.4%.

What about the viability [2] of the same molecule?
Its viability is 98.2%.

And the Activity (RAW264.7 [3])?
Its Activity is “Dose-Dependent Effect”.

What about the inhibition (RAW264.7 [4]) of the same molecule?
The inhibition was “Active”.

What about the Activity [5] of the same molecule?
The Activity was 70%.

What about the Activity [6] of the same molecule?
Its Activity is “inactive”.

What about the Activity [7] of the same molecule?
Its Activity is 70%.

What about the inhibition (RAW264.7 [8]) of the same molecule?
The inhibition was “Active”.

What about the Activity (Mus musculus [9]) of the same molecule?
Its Activity is “Active”.

And the Activity (Mus musculus [10])?
The Activity was 6.2 cm.

And the Activity (Mus musculus [11])?
The Activity was “Active”.

And the Activity (Mus musculus [12])?
The Activity was “Active”.

And the Activity (Mus musculus [13])?
Its Activity is “Active”.

And the Activity (Mus musculus [14])?
Its Activity is “Active”.

And the Activity (Mus musculus [15])?
Its Activity is “Dose-Dependent Effect”.

And the Activity (Mus musculus [16])?
The Activity was “Active”.

What about the Activity (Mus musculus [17]) of the same molecule?
Its Activity is “Active”.

And the Activity (Mus musculus [18])?
The Activity was “Active”.

What about the Activity (Mus musculus [19]) of the same molecule?
Its Activity is “Active”.

What about the Activity (Mus musculus [20]) of the same molecule?
The Activity was “Active”.

What about the Activity (Mus musculus [21]) of the same molecule?
The Activity was “Active”.

And the Stability [22]?
Its Stability is “Stable”.

And the half-life [23]?
The half-life was 2.8 h.

And the AUCt [24]?
The AUCt was 10.6536 µg·h/mL.
